Key:
RMA-Rael cells [1] = experiment: Overall survival of RMA-Rael tumor challenged hosts (Kaplan-Meier); format: in vivo, mice; conditions: C57BL/6 hosts, 1×10^5 RMA-Rael
Experimental: FIGS. 6A-6I show the survival of tumor bearing mice treated with a SHIP inhibitor. […] Hosts were treated on the day of tumor challenge and the following day as in FIG. 1. The 2-day treatment course was repeated each week for the duration of survival. […] Mice received either NK cell depleting, anti-NK1.1 antibody (PK136), or isotype control antibody prior to tumor challenge (5×10^5 RMA-Rael). The hosts received SHIP inhibitor two consecutive days each week until death. […] The hosts were treated on the day of tumor challenge and the following day as in FIG. 1. The 2-day treatment course was repeated each week for the duration of survival.
The most clinically relevant endpoint in any cancer therapy study is not a measured decrease in tumor burden, but instead, a significant increase in survival promoted by the treatment.
In order to further define 3AC′s capacity to control malignancy through immunomodulatory effects the capacity of 3AC to promote resistance of NSG, TcRa^−/− and NK cell depleted hosts to RMA-Rael tumor challenge was examined. As before, mice received treatment with 3AC or vehicle for two consecutive days each week followed by a five-day cessation of treatment to prevent disarming and/or exhaustion. This treatment strategy was continued indefinitely and survival was monitored (FIG. 6A). To confirm that, in addition to the chemotherapeutic effect documented in FIG. 5, 3AC-induced enhanced-NK and -T cell activity is important for the survival benefit following tumor challenge, NSG mice (mice deficient of all lymphocyte lineages) were challenged.
To determine if T cells are required for the 3AC-mediated survival benefit, the same expirement using TcRa^−/− hosts that lack a TcR-ab^+ T cell compartment was repeated. […] To directly test the requirement for an intact NK cell compartment for 3AC-mediated increased survival after tumor challenge, the experiment as described in FIG. 6A were repeated challenging C57BL/6 hosts that were first depleted of
NK cells. Here, prior to tumor challenge, hosts were injected with either NK cell depleting anti-NK1.1 antibody (C57BL/6-DNK) or with antibody isotype control (C57BL/6-iso) (FIG. 6B).
The SHIP1 inhibitor 3AC was then tested in a genetic model in which the molecular target, SHIP1, was absent in a key target population of T cells, which are required for protection in the RMA-Rael lymphoma challenge model. […] Thus, SHIP inhibitor protection after tumor challenge is lost when the T cell compartment lacks the molecular target (SHIP1) in T cells.
There are two paralogs of SHIP: SHIP1 which is expressed in a limited range of tissues including hematopoietic cells, and SHIP2 which is expressed by a wide array of cell types. To determine if SHIP2 may also play a role in host defense against malignancy as described above tumor bearing mice were treated with small-molecule inhibitors against SHIP2 as well. […] Stem Cells. (2015); 33: 848-858; Hoekstra, E. et al., Lipid phosphatase SHIP2 functions as oncogene in colorectal cancer by regulating PKB activation. Oncotarget. (2016) 7: 73525-73540). Like 3AC, pan-SHIP1/2 inhibitors such as K118 are also cytotoxic for RMA-Rael cells in vitro. The pan SHIP1/2 inhibitory compounds K118 and K149 were compared to the SHIP1 selective compound 3AC.
Simultaneous inhibition of both SHIP1and SHIP2 may be deleterious to the immune response promoted by 3AC. […] In the study, the SHIP1 selective inhibitor 3AC that provides for protection after RMA-Rael challenge was simulataneously co-administered.

SHIP2 = molecular target: T1, SHIP2 (Homo sapiens, UniProt O15357); conditions: Suwa et al. 2009; cited from earlier work
T1 sequence (O15357 1-1258): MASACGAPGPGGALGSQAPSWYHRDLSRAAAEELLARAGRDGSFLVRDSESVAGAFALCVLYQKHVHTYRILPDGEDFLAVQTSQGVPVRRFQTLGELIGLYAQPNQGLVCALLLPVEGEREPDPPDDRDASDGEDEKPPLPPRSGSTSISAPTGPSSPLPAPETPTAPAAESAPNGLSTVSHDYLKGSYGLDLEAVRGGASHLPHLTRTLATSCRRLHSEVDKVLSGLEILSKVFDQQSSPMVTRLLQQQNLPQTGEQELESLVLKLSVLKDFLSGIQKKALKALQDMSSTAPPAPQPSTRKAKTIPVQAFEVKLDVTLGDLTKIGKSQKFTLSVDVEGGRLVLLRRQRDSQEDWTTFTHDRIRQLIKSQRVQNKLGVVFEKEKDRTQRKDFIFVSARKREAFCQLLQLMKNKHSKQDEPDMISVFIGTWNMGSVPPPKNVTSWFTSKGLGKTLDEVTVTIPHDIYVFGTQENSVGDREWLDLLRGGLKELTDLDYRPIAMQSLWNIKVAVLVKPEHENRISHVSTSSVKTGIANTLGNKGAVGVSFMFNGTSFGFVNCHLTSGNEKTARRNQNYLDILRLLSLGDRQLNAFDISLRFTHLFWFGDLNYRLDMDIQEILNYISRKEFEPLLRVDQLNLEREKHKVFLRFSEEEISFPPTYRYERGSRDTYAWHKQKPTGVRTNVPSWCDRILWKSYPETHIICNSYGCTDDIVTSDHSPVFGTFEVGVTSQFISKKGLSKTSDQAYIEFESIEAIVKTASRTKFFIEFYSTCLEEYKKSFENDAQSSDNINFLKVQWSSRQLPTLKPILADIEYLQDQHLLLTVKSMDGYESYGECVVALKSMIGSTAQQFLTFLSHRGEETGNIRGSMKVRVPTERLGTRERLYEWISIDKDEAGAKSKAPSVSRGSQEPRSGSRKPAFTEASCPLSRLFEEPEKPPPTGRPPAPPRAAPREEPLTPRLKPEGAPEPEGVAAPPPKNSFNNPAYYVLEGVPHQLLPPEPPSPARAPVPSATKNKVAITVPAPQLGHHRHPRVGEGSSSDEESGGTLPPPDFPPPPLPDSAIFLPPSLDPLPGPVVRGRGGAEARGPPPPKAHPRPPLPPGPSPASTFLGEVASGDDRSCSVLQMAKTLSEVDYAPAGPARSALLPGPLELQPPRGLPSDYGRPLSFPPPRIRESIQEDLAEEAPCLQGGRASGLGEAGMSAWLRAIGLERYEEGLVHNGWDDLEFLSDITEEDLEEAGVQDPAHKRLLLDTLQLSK

RMA-Rael cells [2] = experiment: RMA-Rael viability following in vitro treatment; format: cell-based, mice; conditions: 24 h, doses given as 5-20 pM, vs solvent only
From the text: FIGS. 5A-5I show the effects of SHIP1 inhibitor as a chemotherapeutic. […] FIG. 5D and FIG. 5E show the representative histograms and box-and-whisker plots of FasL expression by NK cells from C56BL/6 (p=0.0002; Unpaired t test with Welch's correction) or RAG1−/− (p<0.0001; Mann-Whitney U test) tumor challenged, SHIP inhibitor or vehicle treated hosts. […] (NK cells p=0.0192; Unpaired t test with Welch's correction. T cells p=0.0659; Mann-Whitney U test). Additionally, FIGS. 5A-5G show the analysis by flow cytometry on day 3 after hosts receive SHIP inhibitor or vehicle for two consecutive days. NK cells are defined as NK1.1+CD3ε−. The graphs are representative of at least two independent experiments with at least four SHIP inhibitor and vehicle treated mice. […] Viability is expressed as frequency at a given concentration expressed as a percentage of solvent only treated cells. The kill curve summarizes pooled data from three independent experiments using six replicate wells/concentration with mean ±SEM indicated (n=18 per group. One-way ANOVA with Dunnett's multiple comparisons. 0 pM vs. 20 pM Adjusted p value =0.0001. 0 pM vs. 15 pM Adjusted p value =0.0001. 0 pM vs. 10 pM Adjusted p value =0.0001. 0 pM vs. 7.5 pM Adjusted p value =0.0001. 0 pM vs. 5 pM Adjusted p value =0.0001). […]

SHIP1/2 = conditions: Brooks et al. 2015; Hoekstra et al. 2016; cited from earlier work

| SMILES | overall survival (protection) (RMA-Rael cells [1]; FIG. 6I, alone vs vehicle) | overall survival (effect on protection by 3AC) (RMA-Rael cells [1]; FIG. 6I, co-administered with 3AC) | selectivity for SHIP2 (SHIP2) | overall survival (protection) (RMA-Rael cells [1]; FIG. 6H, vs vehicle) | RMA-Rael viability (direct killing) (RMA-Rael cells [2]) | SHIP1/2 inhibitory activity (SHIP1/2) |
| --- | --- | --- | --- | --- | --- | --- |
| C[C@H](NC(=O)c1sccc1OCc1ccc(Cl)cc1)c1ccccc1 [AS1949490] | no protection | completely abrogated the protective effect of 3AC | high degree of selectivity | – | – | – |
| C[C@@]12CCC[C@H]1[C@@H]1CC[C@H]3C[C@@H](N)CC[C@]3(C)[C@H]1CC2.Cl [Compound K118, 3β-amino-5α-androstane hydrochloride] | – | – | – | no protection | cytotoxic | pan-SHIP1/2 inhibitory activity |
| CSc1ccc2c(c1)c(CCN)c(C)n2Cc1ccc(Cl)cc1.Cl [Compound K149, 2-[1-(4-chlorobenzyl)-2-methyl-5-(methylmercapto)-1H-3-yl] ethanaminium chloride] | – | – | – | no protection | – | pan-SHIP1/2 inhibitory activity |

— patent publication US11952328B2, “Selective ship inhibitors for treating disease” (THE RESEARCH FOUNDATION FOR THE STATE UNIVERSITY OF NEW YORK, priority 2018, dated 2024)
